ChEMBL document CHEMBL1201862, “PubChem BioAssay data set” (2004)
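All cell lines were grown in 96-well plates and treated with compound for 48 hours. GI50 is the concentration that inhibits growth by half.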 Calls of active or inactive are those of the source. Cut-off read from the data, not from the text of the source: active = GI50 up to about 1.1 µM and inactive = higher.

Assays:
Assay in all cases: inhibition of tumour cell growth, NCI panel, 48 h
A498 = system: A498
A549 = system: A549
CAKI-1 = system: CAKI-1
COLO 205 = system: COLO 205
EKVX = system: EKVX
HCT-15 = system: HCT-15
MDA-MB-231 = system: MDA-MB-231
Malme-3M = system: Malme-3M
NCI-H226 = system: NCI-H226
NCI/ADR-RES = system: NCI/ADR-RES
SF-268 = system: SF-268
SF-295 = system: SF-295
SF-539 = system: SF-539
SNB-19 = system: SNB-19
SR = system: SR
UACC-62 = system: UACC-62
UO-31 = system: UO-31
OVCAR-4 = system: OVCAR-4
SNB-75 = system: SNB-75
T47D = system: T47D

| SMILES | GI50 (A498) | GI50 (A549) | GI50 (CAKI-1) | GI50 (COLO 205) | GI50 (EKVX) | GI50 (HCT-15) | GI50 (MDA-MB-231) | GI50 (Malme-3M) | GI50 (NCI-H226) | GI50 (NCI/ADR-RES) | GI50 (SF-268) | GI50 (SF-295) | GI50 (SF-539) | GI50 (SNB-19) | GI50 (SR) | GI50 (UACC-62) | GI50 (UO-31) | GI50 (OVCAR-4) | GI50 (SNB-75) | GI50 (T47D) |
| --- | --- | --- | --- | --- | --- | --- | --- | --- | --- | --- | --- | --- | --- | --- | --- | --- | --- | --- | --- | --- |
| CC(C)(C)C1CCC2c3c([nH]c4ccccc34)C3C(=O)N(c4ccc(C#N)cc4)C(=O)C3C2C1 (stereo unspecified) | 13.7 µM (inactive) | 8.43 µM (inactive) | 12.3 µM (inactive) | 21.4 µM (inactive) | 13.8 µM (inactive) | 12.1 µM | 15.3 µM (inactive) | 17.3 µM (inactive) | 20 µM (inactive) | 17.6 µM (inactive) | 11 µM (inactive) | 29.2 µM (inactive) | 18.7 µM (inactive) | 34.4 µM (inactive) | 6.47 µM (inactive) | 5.81 µM (inactive) | 7.36 µM (inactive) |  |  |  |
| COc1cc(NC(C)=O)ccc1C(=O)N/N=C/c1ccco1 | > 100 µM (inactive) | > 100 µM (inactive) | 65 µM (inactive) | 31.8 µM (inactive) | > 100 µM (inactive) | > 100 µM |  | > 100 µM (inactive) |  | > 100 µM (inactive) | > 100 µM (inactive) | > 100 µM (inactive) | 44.2 µM (inactive) | > 100 µM (inactive) | 26.7 µM (inactive) | > 100 µM (inactive) | 67.1 µM (inactive) | > 100 µM (inactive) | > 100 µM (inactive) | > 100 µM (inactive) |
| C/C(=N\N(C)C)C(CN1CCCCC1)C(c1ccccc1)c1c(O)c2ccccc2oc1=O (stereo unspecified) | > 100 µM (inactive) | > 100 µM (inactive) | > 100 µM (inactive) | > 100 µM (inactive) | > 100 µM (inactive) | > 100 µM |  | > 100 µM (inactive) | 37.5 µM (inactive) |  | > 100 µM (inactive) | > 100 µM (inactive) | > 100 µM (inactive) | > 100 µM (inactive) | > 100 µM (inactive) | 80.4 µM (inactive) | 32.6 µM (inactive) | > 100 µM (inactive) | 28.3 µM (inactive) |  |
| COc1cc(/C=C2\CCC(C)(CN(C)C)C2=O)cc(OC)c1OC (stereo unspecified) | > 100 µM (inactive) | > 100 µM (inactive) | > 100 µM (inactive) | > 100 µM (inactive) | > 58.3 µM (inactive) | > 100 µM |  | > 100 µM (inactive) | > 100 µM (inactive) |  | > 100 µM (inactive) | > 100 µM (inactive) | > 100 µM (inactive) | > 100 µM (inactive) | 63.4 µM (inactive) | 70.5 µM (inactive) | > 100 µM (inactive) | > 100 µM (inactive) | > 100 µM (inactive) |  |
| COc1ccc(N2C(=O)C(C#N)=C(SC)C(C#N)C2=O)cc1 (stereo unspecified) | > 100 µM (inactive) | > 100 µM (inactive) | > 100 µM (inactive) | > 100 µM (inactive) | > 100 µM (inactive) | > 100 µM | > 100 µM (inactive) | > 100 µM (inactive) | > 100 µM (inactive) | > 100 µM (inactive) | > 100 µM (inactive) | > 100 µM (inactive) | > 100 µM (inactive) | 66.5 µM (inactive) |  | > 100 µM (inactive) |  | > 100 µM (inactive) | 47.1 µM (inactive) |  |
| CC1CC(c2ccc([N+](=O)[O-])cc2)=Nc2ccccc2S1 (stereo unspecified) | 19 µM (inactive) | 21.9 µM (inactive) | 24.4 µM (inactive) | 24 µM (inactive) | 23.6 µM (inactive) | 15.4 µM |  | 35.9 µM (inactive) | 23.2 µM (inactive) |  | 17.3 µM (inactive) | 19.1 µM (inactive) | 16.9 µM (inactive) | 16.7 µM (inactive) | 5.09 µM (inactive) | 14 µM (inactive) | 11.8 µM (inactive) | 16.7 µM (inactive) | 37.6 µM (inactive) |  |
| Cc1cc(NS(=O)(=O)c2ccc(NO)cc2)no1 | > 100 µM (inactive) | > 100 µM (inactive) | > 100 µM (inactive) | > 100 µM (inactive) | > 100 µM (inactive) | 32.4 µM | 34.7 µM (inactive) | > 100 µM (inactive) | > 100 µM (inactive) | 39.5 µM (inactive) | > 100 µM (inactive) | > 10 µM (inactive) | 35.1 µM (inactive) | > 100 µM (inactive) | 23.4 µM (inactive) | 56.6 µM (inactive) | > 100 µM (inactive) | 67.3 µM (inactive) | 43.7 µM (inactive) |  |
| CCCCCCCCCCCC(=O)OCC1OC(n2cc(F)c(=O)[nH]c2=O)C(N)C(O)C1O (stereo unspecified) | > 100 µM (inactive) | > 100 µM (inactive) | 49 µM (inactive) | 60.3 µM (inactive) | > 100 µM (inactive) | > 100 µM |  | > 100 µM (inactive) | > 100 µM (inactive) |  | > 100 µM (inactive) | > 100 µM (inactive) | > 100 µM (inactive) | 57.9 µM (inactive) | 81.7 µM (inactive) | 42 µM (inactive) | > 100 µM (inactive) | > 100 µM (inactive) | > 100 µM (inactive) |  |
| N#Cc1cccc(/C=N/C23CC4CC(CC(C4)C2)C3)c1 | > 100 µM (inactive) | > 100 µM (inactive) | > 100 µM (inactive) | > 100 µM (inactive) | > 100 µM (inactive) | > 100 µM |  | > 100 µM (inactive) | > 100 µM (inactive) |  | > 100 µM (inactive) | > 100 µM (inactive) | > 100 µM (inactive) | > 100 µM (inactive) | 76.2 µM (inactive) | > 100 µM (inactive) | > 100 µM (inactive) | > 100 µM (inactive) | > 10 µM (inactive) |  |
| COc1cc2c(c3c1c(=O)c1ccccc1n3C)C=CC1(CCCC1)O2 | 18 µM (inactive) | 19.7 µM (inactive) | 2.54 µM (inactive) | 13.6 µM (inactive) | 13.5 µM (inactive) | 14.1 µM | 12.4 µM (inactive) | 16.4 µM (inactive) | 16 µM (inactive) | 23.7 µM (inactive) | 18.8 µM (inactive) | 3.63 µM (inactive) | 4.16 µM (inactive) | 18.5 µM (inactive) | 7.94 µM (inactive) | 13.1 µM (inactive) |  | 12.2 µM (inactive) | 11.8 µM (inactive) |  |
| O=c1ccn(C2(CO)C=C(CO)C(O)C2O)c(=O)[nH]1 (stereo unspecified) | > 25.7 µM (inactive) | > 25.7 µM (inactive) | > 25.7 µM (inactive) | > 25.7 µM (inactive) | > 25.7 µM (inactive) | > 25.7 µM |  | > 25.7 µM (inactive) | > 25.7 µM (inactive) |  | > 25.7 µM (inactive) |  | > 25.7 µM (inactive) | > 25.7 µM (inactive) | > 25.7 µM (inactive) | > 25.7 µM (inactive) | > 25.7 µM (inactive) | > 25.7 µM (inactive) | > 25.7 µM (inactive) |  |
| c1cc2c(cnc3cscc32)s1 | > 100 µM (inactive) | > 100 µM (inactive) | 95.5 µM (inactive) |  |  | > 100 µM |  | > 100 µM (inactive) | > 100 µM (inactive) |  | > 100 µM (inactive) | > 100 µM (inactive) | > 100 µM (inactive) | > 100 µM (inactive) | > 100 µM (inactive) |  | > 100 µM (inactive) | > 100 µM (inactive) | 57.7 µM (inactive) |  |
| CCOC(=O)C1=C(C)N(NC(=O)c2ccccc2)C2(O)CCCC12C(=O)OCC (stereo unspecified) | > 100 µM (inactive) | > 100 µM (inactive) | > 100 µM (inactive) |  | > 100 µM (inactive) | > 100 µM |  | > 100 µM (inactive) | > 100 µM (inactive) |  | > 100 µM (inactive) | > 100 µM (inactive) | > 100 µM (inactive) | > 100 µM (inactive) | 73.3 µM (inactive) | > 100 µM (inactive) | > 100 µM (inactive) | > 100 µM (inactive) | 40.1 µM (inactive) |  |
| COC12CC(O)=C(C(C)=O)C(=O)C1(C)c1c(OC(C)=O)c(C)c(O)c(C(C)=O)c1O2 (stereo unspecified) | 17.3 µM (inactive) | 9.44 µM (inactive) | 15.7 µM (inactive) |  | 31 µM (inactive) | 13.6 µM |  | 17.9 µM (inactive) | 13.8 µM (inactive) |  | 23.6 µM (inactive) | 8.09 µM (inactive) | 21.6 µM (inactive) | 4.98 µM (inactive) | 18.5 µM (inactive) | 4.98 µM (inactive) | 4.35 µM (inactive) | 18.7 µM (inactive) | 16 µM (inactive) |  |
| CCOC(=O)C(NC(=O)c1nc[nH]c1/N=N/N(C)C)C(C)C (stereo unspecified) | > 100 µM (inactive) | > 100 µM (inactive) | > 100 µM (inactive) | > 100 µM (inactive) | > 100 µM (inactive) | > 100 µM |  | > 100 µM (inactive) | > 100 µM (inactive) |  | > 100 µM (inactive) | > 100 µM (inactive) | > 100 µM (inactive) | > 100 µM (inactive) | > 100 µM (inactive) | > 100 µM (inactive) | > 100 µM (inactive) | > 100 µM (inactive) | > 100 µM (inactive) |  |
| CC1(C(=O)O)CCC2(C)CCC3(C)C(=CC(=O)C4C5(C)CCC(O)C(C)(C)C5CCC43C)C2C1 (stereo unspecified) |  | 40.3 µM (inactive) | 24.4 µM (inactive) | 38.8 µM (inactive) | 34.9 µM (inactive) | 34.8 µM |  | > 100 µM (inactive) | 25.8 µM (inactive) | 46 µM (inactive) | 27.4 µM (inactive) | 26.5 µM (inactive) | 17.6 µM (inactive) | 20.6 µM (inactive) | 24.3 µM (inactive) | 21 µM (inactive) | 23.6 µM (inactive) | 42.8 µM (inactive) | 33.8 µM (inactive) | 30.8 µM (inactive) |
